Results taken from PMC7997369, “Assessment of the Multifunctional Behavior of Lupin Peptide P7 and Its Metabolite Using an Integrated Strategy” (Journal of Agricultural and Food Chemistry, 2020).
Values joined by “and” are separate entries in the source; they are usually repeats but may differ in a detail not shown here. Identical values can stand only once. No end group written: not given here.

Experiments:
[1] = tested on: differentiated Caco-2 cell monolayers; assay: Transepithelial transport and metabolism across differentiated Caco-2 cell monolayers; format: in vitro ADME, human; details: for detected at the AP side, P7 tested within a mixture: AP solutions of differentiated Caco-2 collected after 120 min; for amount in the BL compartment after 60 min, peptide alone / amount in the BL compartment after 60 min, P7 in the mixture / absorbed amount after 2 h, P7 in the mixture: HPLC–Chip–MS/MS; for rate of transport, peptide alone: AP pH 6.0 (MES), BL pH 7.4
Protocol: For differentiation, Caco-2 cells were seeded on polycarbonate filters with a 12 mm diameter and 0.4 μm pore diameter (Transwell, Corning, Inc., Lowell, MA, U.S.A.) at a 3.5 × 10^5 cells/cm^2 density in complete medium supplemented with 10% FBS in both AP and BL compartments for 2 days to allow for the formation of a confluent cell monolayer. Starting from day 3 after seeding, cells were transferred to FBS-free medium in both compartments, supplemented with ITS [final concentration of 10 mg/L insulin (I), 5.5 mg/L transferrin (T), and 6.7 μg/L sodium selenite (S), GIBCO–Invitrogen, San Giuliano Milanese, Italy] only in the BL compartment, and allowed to differentiate for 18–21 days with regular medium changes 3 times weekly.[12]
The transepithelial electrical resistance (TEER) of differentiated Caco-2 cells was measured at 37 °C using the voltmeter apparatus Millicell (Millipore Co., Billerica, MA, U.S.A.), immediately before and at the end of the transport experiments. In addition, at the end of transport experiments, cells were incubated from the AP side with 1 mM phenol red in phosphate-buffered saline (PBS) containing Ca^2+ (0.9 mM) and Mg^2+ (0.5 mM) for 1 h at 37 °C, to monitor the paracellular permeability of the cell monolayer. The BL solutions were then collected, and NaOH (70 μL, 0.1 N) was added before reading the absorbance at 560 nm by a microplate reader Synergy H1 from Biotek (Winooski, VT, U.S.A.). Phenol red passage was quantified using a standard phenol red curve. Only filters showing TEER values and phenol red passages similar to untreated control cells were considered for peptide transport analysis.
Prior to experiments, the cell monolayer integrity and differentiation were checked by TEER measurement as described in detail above. Cells were then washed twice, and peptide transportation by intestinal cells was assayed. Transport experiments were performed in transport buffer solution (137 mM NaCl, 5.36 mM KCl, 1.26 mM CaCl2, 1.1 mM MgCl2, and 5.5 mM glucose) following conditions previously described.[13] To reproduce the pH conditions existing in vivo in the small intestinal mucosa, AP solutions were maintained at pH 6.0 (buffered with 10 mM morpholinoethanesulfonic acid) and BL solutions were maintained at pH 7.4 (buffered with 10 mM N-2-hydroxyethylpiperazine-N-4-[…]). Prior to transport experiments, cells were washed twice with 500 μL of PBS containing Ca^2+ and Mg^2+. Peptide transportation by mature Caco-2 cells was assayed by loading the AP compartment with P7 and/or LTFPG (500 μM) in the AP transport solution (500 μL) and the BL compartment with the BL transport solution (700 μL). The plates were incubated at 37 °C, and the BL solutions were collected at different time points (i.e., 15, 30, 60, 90, and 120 min) and replaced with fresh solutions prewarmed at 37 °C. All BL solutions together with the AP solutions collected at the end of the transport experiment were stored at −80 °C prior to analysis. Three independent transport experiments were performed, each in duplicate.
Quantitative analysis of P7 in the AP and BL samples were carried out by ion trap mass spectrometry (MS) in multiple reaction monitoring (MRM) mode, monitoring two of the most intense diagnostic transitions, after optimization of the acquisition parameters, such as retention time, MS profile, and tandem mass spectrometry (MS/MS) fragmentation spectrum.[14],[15] All further details regarding liquid chromatography–tandem mass spectrometry (LC–MS/MS) operating conditions and method validations are described in the Supporting Information.
The metabolic degradation products deriving from the hydrolytic activity of brush border membrane peptidases were investigated by an untargeted approach (for further details, see the Supporting Information). […]

DPP-IV = DPP-IV (Homo sapiens, UniProt P27487); assay: Stability of P7 in the presence of DPP-IV; format: in vitro ADME; details: P7 (500 μM) with purified recombinant DPP-IV, Tris–HCl pH 8.0, 37 °C, 5, 30 and 120 min; LC–MS MRM
Sequence of DPP-IV (P27487 whole entry): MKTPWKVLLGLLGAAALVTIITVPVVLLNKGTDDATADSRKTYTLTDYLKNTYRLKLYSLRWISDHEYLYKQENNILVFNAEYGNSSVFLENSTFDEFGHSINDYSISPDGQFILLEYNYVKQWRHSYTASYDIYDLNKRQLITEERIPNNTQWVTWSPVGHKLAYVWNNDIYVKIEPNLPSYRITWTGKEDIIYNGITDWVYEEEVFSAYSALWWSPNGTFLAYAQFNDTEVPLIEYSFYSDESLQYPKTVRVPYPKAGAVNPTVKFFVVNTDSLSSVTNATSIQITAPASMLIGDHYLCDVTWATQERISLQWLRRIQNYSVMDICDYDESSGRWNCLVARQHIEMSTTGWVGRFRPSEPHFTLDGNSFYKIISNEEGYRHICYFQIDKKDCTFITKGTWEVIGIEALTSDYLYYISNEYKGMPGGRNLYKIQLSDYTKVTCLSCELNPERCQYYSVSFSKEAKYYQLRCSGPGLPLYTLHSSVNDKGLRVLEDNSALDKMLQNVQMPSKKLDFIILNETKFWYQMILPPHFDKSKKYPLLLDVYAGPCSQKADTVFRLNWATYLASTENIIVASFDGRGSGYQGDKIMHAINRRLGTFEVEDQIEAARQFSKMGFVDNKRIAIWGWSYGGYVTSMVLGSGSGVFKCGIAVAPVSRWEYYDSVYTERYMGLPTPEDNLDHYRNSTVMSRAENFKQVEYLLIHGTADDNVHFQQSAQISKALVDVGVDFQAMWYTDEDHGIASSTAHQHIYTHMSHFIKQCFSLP
Protocol: The experiments were carried out in microcentrifuge tubes. Each reaction (100 μL) was prepared by adding the reagents in the following order: 1× DPP-IV assay buffer [20 mM Tris–HCl at pH 8.0 containing 100 mM NaCl and 1 mM ethylenediaminetetraacetic acid (EDTA)] (80 μL), P7 solution (10 μL, 500 μM), and finally DPP-IV (10 μL). Subsequently, the samples were mixed and kept at 37 °C in a thermoblock for 5, 30, and 120 min. At the end of the reactions, DPP-IV was inactivated by adding 200 μL of precooled acetonitrile (ACN) to each tube; then the samples were centrifuged for 10 min at 13300g at 4 °C; and the supernatant was collected. P7 and LTFPG were loaded onto the enrichment column (Zorbax 300SB-C18, 5 μm pore size) at a flow rate of 4 μL/min using isocratic 100% C solvent phase (99% water, 1% ACN, and 0.1% formic acid). After the cleanup, P7 and LTFPG were separated on a 150 mm × 75 μm analytical column (Zorbax300SB-C18, 5 μm pore size) at the constant flow rate of 300 nL/min. The LC solvent A was 95% water, 5% ACN, and 0.1% formic acid; solvent B was 5% water, 95% ACN, and 0.1% formic acid. The nanopump gradient program was as follows: 5% solvent B (0 min), 70% solvent B (0–8 min), and back to 5% solvent B in 2 min. Post-time was 10 min. The drying gas temperature was 300 °C, and the flow rate was 3 L/min (nitrogen). Data acquisition occurred in positive ionization mode. […]

[2] = untargeted HPLC–Chip–MS/MS, × = detected
[3] = differentiated Caco-2, AP to BL, peptide alone, 500 μM in AP, 37 °C, AP pH 6.0, BL pH 7.4
[4] = differentiated Caco-2, AP to BL, peptide alone, 500 μM in AP, 37 °C, AP pH 6.0, BL pH 7.4, mean ± sd
[5] = differentiated Caco-2 on Transwell, AP to BL, peptide alone, 500 μM in AP, 37 °C, BL sampled 15–120 min, HPLC–Chip–MS/MS MRM, mean ± sd, three independent experiments
[6] = differentiated Caco-2, AP to BL, mixture with P3 and P5, each 500 μM in AP, 37 °C
[7] = differentiated Caco-2, AP to BL, mixture with P3 and P5, each 500 μM in AP, 37 °C, mean ± sd

detected at the AP side, P7 tested within a mixture [1, 2]	amount in the BL compartment after 60 min, peptide alone [1, 3]	amount in the BL compartment after 60 min, peptide alone [1, 4]	lag period for transport, peptide alone ([1]; differentiated Caco-2, AP to BL, peptide alone, 500 μM in AP, AP pH 6.0, BL pH 7.4, 37 °C)	rate of transport, peptide alone [1, 5]	detected at the AP side, P7 tested as individual species (alone) ([1]; AP solutions of differentiated Caco-2 at the end of the transport experiment, untargeted HPLC–Chip–MS/MS, × = detected)	fold higher amount in BL when tested alone than in the mixture ([1]; after 60 min of incubation)	amount in the BL compartment after 60 min, P7 in the mixture [1, 6]	amount in the BL compartment after 60 min, P7 in the mixture [1, 7]	absorbed amount after 2 h, P7 in the mixture [1, 6]	absorbed amount after 2 h, P7 in the mixture [1, 7]	lag period for transport, P7 in a mixture ([1]; differentiated Caco-2, AP to BL, mixture with P3 and P5, each 500 μM in AP, AP pH 6.0, BL pH 7.4, 37 °C)	rate of transport, P7 in a mixture ([1]; differentiated Caco-2 on Transwell, AP to BL, mixture with P3 and P5, each 500 μM in AP, AP pH 6.0, BL pH 7.4, 37 °C, BL sampled 15–120 min, HPLC–Chip–MS/MS MRM, mean ± sd, three independent experiments)	Substance	transport in the presence of wortmannin ([1]; mature Caco-2 cells, wortmannin, inhibitor of the transcellular passage)	hydrolysis of P7 by DPP-IV (formation of LTFPG) (DPP-IV)
×	0.412 nmol	0.22 ± 0.003 µg	without a lag period	3.7 ± 0.8 ng mL^–1 min^–1	–	–	–	–	–	–	–	–	LTFPG [LTFPG]	transported also in the presence of wortmannin	clearly detectable after 2 h of incubation
×	0.278 nmol	0.26 ± 0.02 µg	–	4.2 ± 0.6 ng mL^–1 min^–1	×	about 4 fold	0.064 nmol	0.06 ± 0.003 µg	0.235 nmol	0.22 ± 0.5 µg	27.7 min and 27 min	1.98 ± 0.21 ng mL^–1 min^–1	LTFPGSAED [P7]	–	subjected to DPP-IV hydrolysis
